Laboratory results: patent publication US20210040074A1 (The United States of America,as represented by the …, priority 2018, published 2021)
Values joined by “and” are separate entries in the source; they are usually repeats but may differ in a detail not shown here. Equal values may be shown once.

What was measured:
D3R = D3R (Homo sapiens, UniProt P35462); assay: D3R β-arrestin BRET assay; settings: 50 μM compound
Procedure: (§2) Bioluminescence Resonance Energy Transfer (BRET) Assays. Experiments were performed in HEK239 cells transiently transfected with D1R-RLuc8 and β-arrestin-mVenus (β-arrestin BRET) or Gαs-mVenus+β1+γ2 (Gs BRET) using the polyethylenimine (PEI) transfection method. […] Appropriate amounts of DNA were combined with 3 μg/μL PEI per μg of DNA in nonsupplemented DMEM and incubated with the cells overnight. Experiments were performed 48 hours post-transfection. On experiment day, cells were collected and resuspended in Dulbecco's Phosphate-Buffered Saline (DPBS) with Ca2+ and Mg2++0.2 mM sodium metabisulfite+5.5 mM glucose.

human D1R [1] = biological target: T1, human D1R (Homo sapiens, UniProt P21728); assay: D1R β-arrestin recruitment assay (DiscoverX PathHunter, CHO-K1 cells); design: Emax: dose or concentration left out as unconfirmed; settings: for increase in dopamine potency (EC50) for β-arrestin recruitment to D1R: 50 μM compound vs DA alone; for Emax: CHO-K1, read-out: increase in dopamine efficacy (Emax) for β-arrestin recruitment to D1R; for agonist activity of PAM alone, β-arrestin recruitment: concentration response with the PAM, no dopamine; for effect on potency of D1R partial agonists: fenoldopam, apomorphine, SKF38393, SKF77434; for D1 Beta-Arrestin: DA + 50 μM PAM, Fold Chg EC50: fold change of dopamine EC50, 50 μM compound; for log β (modulatory effect on dopamine efficacy) / β (modulatory effect on dopamine efficacy): operational model of allosterism; for increase in SKF77434-stimulated response: partial agonist SKF77434 + PAM, text says cAMP accumulation, FIG. 5D legend β-arrestin; for increase in efficacy of SKF38393 / increase in efficacy of apomorphine / increase in efficacy of fenoldopam: β-arrestin recruitment; for increase in efficacy of SKF38393: G-protein biased partial agonist SKF38393 + PAM; for increase in efficacy of apomorphine: partial agonist apomorphine + PAM; for increase in efficacy of fenoldopam: partial agonist fenoldopam + PAM
T1 sequence (P21728 whole entry): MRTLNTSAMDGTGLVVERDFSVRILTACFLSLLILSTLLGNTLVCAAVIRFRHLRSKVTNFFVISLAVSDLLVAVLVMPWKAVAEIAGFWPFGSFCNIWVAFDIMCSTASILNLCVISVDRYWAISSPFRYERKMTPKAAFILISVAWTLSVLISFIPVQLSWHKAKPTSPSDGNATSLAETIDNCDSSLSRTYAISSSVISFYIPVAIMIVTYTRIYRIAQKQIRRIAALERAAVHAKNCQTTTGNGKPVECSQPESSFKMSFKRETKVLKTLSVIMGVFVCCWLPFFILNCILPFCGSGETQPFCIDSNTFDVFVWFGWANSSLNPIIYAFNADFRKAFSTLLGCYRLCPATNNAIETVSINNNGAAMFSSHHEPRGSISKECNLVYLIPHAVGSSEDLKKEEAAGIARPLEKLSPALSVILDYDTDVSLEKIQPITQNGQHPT

D4R [2] = biological target: T2, D4R (Homo sapiens, UniProt P21917); assay: D4 β-arrestin recruitment assay (DiscoverX PathHunter, CHO-K1 cells); format: cell-based; design: inferred from the same PathHunter system described for D1R and D5R; host or cells: CHO-K1; settings: for D4 Beta-Arrestin: DA + 50 μM PAM, Fold Change EC50: fold change of dopamine EC50, 50 μM compound
T2 sequence (P21917 1-419): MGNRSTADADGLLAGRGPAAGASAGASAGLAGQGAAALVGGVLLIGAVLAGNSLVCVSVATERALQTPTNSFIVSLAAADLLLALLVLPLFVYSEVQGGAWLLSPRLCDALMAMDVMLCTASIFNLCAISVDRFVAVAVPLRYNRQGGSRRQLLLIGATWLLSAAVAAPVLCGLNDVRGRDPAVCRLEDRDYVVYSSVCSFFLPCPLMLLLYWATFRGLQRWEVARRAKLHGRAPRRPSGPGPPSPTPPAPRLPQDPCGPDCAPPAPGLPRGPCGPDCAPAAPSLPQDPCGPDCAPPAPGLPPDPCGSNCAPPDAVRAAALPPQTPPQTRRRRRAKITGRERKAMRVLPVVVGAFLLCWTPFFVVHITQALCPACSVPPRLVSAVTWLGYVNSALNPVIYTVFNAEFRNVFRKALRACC
Procedure: (§1) β-arrestin Recruitment Assay. Agonist-mediated recruitment of β-arrestin-2 to all five DARs was determined using the DiscoveRx PathHunter complementation assay (DiscoverX Inc, Fremont, Calif.), as previously described (Free, et. al., 2014; Conroy, et. al., 2015). […] Following 18-24 h of incubation, the cells were treated with the indicated concentrations of compound in PBS buffer containing 0.2 mM sodium metabisulfite, and incubated at 37° C. for 90 min. DiscoverX reagent was added to cells according to the manufacturer's protocol, followed by a 60 min incubation in the dark at room temperature. Luminescence was measured on a Hamamatsu FDSS μ-Cell reader (Hamamatsu, Bridgewater, N.J.) and data were collected using the FDSS software.

D2R = D2R (Homo sapiens, UniProt P14416); assay: D2R β-arrestin BRET assay; settings: 50 μM compound
Chain of D2R (P14416 whole entry): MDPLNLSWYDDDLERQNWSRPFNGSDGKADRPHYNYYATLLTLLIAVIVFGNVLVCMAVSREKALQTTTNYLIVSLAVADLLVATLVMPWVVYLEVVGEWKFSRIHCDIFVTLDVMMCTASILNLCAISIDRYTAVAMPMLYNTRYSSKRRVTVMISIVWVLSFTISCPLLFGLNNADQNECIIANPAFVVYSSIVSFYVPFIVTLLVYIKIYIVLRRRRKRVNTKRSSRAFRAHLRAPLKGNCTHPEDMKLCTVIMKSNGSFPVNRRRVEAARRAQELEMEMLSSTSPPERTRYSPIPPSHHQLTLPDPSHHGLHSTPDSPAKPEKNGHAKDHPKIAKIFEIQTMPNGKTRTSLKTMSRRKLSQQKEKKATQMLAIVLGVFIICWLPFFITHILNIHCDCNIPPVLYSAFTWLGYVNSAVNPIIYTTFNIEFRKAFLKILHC
Procedure: as §2

human D1R [3] = biological target: T1, human D1R; assay: D1 cAMP accumulation assay (D1R-HEK293 cells, DiscoverX HitHunter); settings: for increase in dopamine potency for cAMP accumulation: 50 μM compound vs DA alone; for agonist activity for cAMP accumulation: compound alone; for D1 cAMP: DA + 50 μM PAM, Fold Chg EC50: fold change of dopamine EC50, 50 μM compound
Procedure: (§3) cAMP Accumulation Assay. Assays were performed on D1R-HEK293 (Codex Biosolutions, Gaithersburg, Md.) cells stably expressing the human D1R. HEK293 cell lines were maintained in Dulbecco's modified Eagles medium, supplemented with 10% fetal bovine serum, 100 U/ml penicillin, 100 μg/ml streptomycin, 1 mM sodium pyruvate, and 250 μg/ml G418 and incubated at 37° C., 5% CO2, and 90% humidity. […] After 18-24 h incubation at 37° C., 5% CO2, and 90% humidity, the media was removed and replaced with 5 μL/well PBS. […] Briefly, antibody and working solution was added to each well according to the manufacturer's protocol, and incubated in the dark at room temperature for 60 min. Following incubation, enzyme acceptor reagent was added to the plates and luminescence (RLU) was measured (FDSS μCell, Hamamatsu Photonics K. K., Bridgewater, N.J.) following a 3 h incubation in the dark at room temperature.

[4] = test system: non D1R containing control cells; assay: Forskolin stimulated cAMP accumulation in non D1R containing control cells; format: cell-based
D4R [5] = biological target: T2, D4R; assay: D4R β-arrestin BRET assay; settings: 50 μM compound
Procedure: as §2

β2AR = β2AR (Homo sapiens, UniProt P07550); assay: β2AR β-arrestin BRET assay; settings: 50 μM compound
Chain of β2AR (P07550 whole entry): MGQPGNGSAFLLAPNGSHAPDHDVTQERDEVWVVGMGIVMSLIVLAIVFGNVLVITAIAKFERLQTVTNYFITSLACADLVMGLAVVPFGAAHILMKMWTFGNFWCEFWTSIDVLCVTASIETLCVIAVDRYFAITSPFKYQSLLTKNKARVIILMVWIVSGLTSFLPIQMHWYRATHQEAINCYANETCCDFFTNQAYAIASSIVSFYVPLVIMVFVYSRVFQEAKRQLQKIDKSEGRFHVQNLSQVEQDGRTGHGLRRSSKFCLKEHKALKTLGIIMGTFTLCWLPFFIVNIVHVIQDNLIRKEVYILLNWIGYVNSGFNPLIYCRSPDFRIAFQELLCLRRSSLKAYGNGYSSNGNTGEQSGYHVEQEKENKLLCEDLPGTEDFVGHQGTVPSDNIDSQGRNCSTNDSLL
Procedure: as §2

human D1R [6] = biological target: T1, human D1R; assay: [3H]-SCH23390 radioligand competition binding (HEK293 D1R membranes), incl. allosteric ternary complex model; settings: for log α / α (binding cooperativity between PAM and dopamine): allosteric ternary complex model; for effect on [3H]-SCH23390 binding: compound alone, up to 50 μM; for leftward shift of dopamine competition curve (increase in dopamine affinity): dopamine competition with [3H]-SCH23390, increasing concentrations of compound; for decrease of [3H]-SCH23390 binding: highest concentration tested, 50 μM
D5 [7] = biological target: T3, D5 (Homo sapiens, UniProt P21918); assay: D5 cAMP assay; settings: fold change of dopamine EC50, 50 μM compound
T3 sequence (P21918 whole entry): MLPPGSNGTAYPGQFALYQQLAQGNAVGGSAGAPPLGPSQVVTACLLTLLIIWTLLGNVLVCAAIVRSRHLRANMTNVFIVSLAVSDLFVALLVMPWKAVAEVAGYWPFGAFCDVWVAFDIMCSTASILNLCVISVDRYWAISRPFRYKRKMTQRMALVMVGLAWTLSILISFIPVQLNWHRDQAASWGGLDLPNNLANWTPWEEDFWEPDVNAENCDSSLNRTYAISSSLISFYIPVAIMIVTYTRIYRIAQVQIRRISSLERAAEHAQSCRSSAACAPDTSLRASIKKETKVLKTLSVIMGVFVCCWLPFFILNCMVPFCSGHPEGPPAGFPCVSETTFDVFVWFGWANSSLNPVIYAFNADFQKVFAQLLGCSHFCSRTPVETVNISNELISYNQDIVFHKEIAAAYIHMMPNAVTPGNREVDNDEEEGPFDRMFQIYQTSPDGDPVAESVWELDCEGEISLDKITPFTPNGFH
Procedure: as §3

D5 [8] = biological target: T3, D5; assay: D5R β-arrestin recruitment assay (DiscoverX PathHunter, CHO cells); format: cell-based; design: host or cells: CHO-K1; settings: for D5 Beta-Arrestin: DA + 50 μM PAM, Fold Change EC50: fold change of dopamine EC50, 50 μM compound; for agonist response of PAM alone at D5R: in the absence of DA
Procedure: as §1, with “Assay.” for “Assay. Agonist-mediated recruitment of β-arrestin-2 to all five DARs was determined using the DiscoveRx PathHunter complementation assay (DiscoverX Inc, Fremont, Calif.), as previously described (Free, et. al., 2014; Conroy, et. al., 2015).”
Each PAM was also examined in the absence of DA as an agonist, as indicated.

Chain of D3R (P35462 whole entry): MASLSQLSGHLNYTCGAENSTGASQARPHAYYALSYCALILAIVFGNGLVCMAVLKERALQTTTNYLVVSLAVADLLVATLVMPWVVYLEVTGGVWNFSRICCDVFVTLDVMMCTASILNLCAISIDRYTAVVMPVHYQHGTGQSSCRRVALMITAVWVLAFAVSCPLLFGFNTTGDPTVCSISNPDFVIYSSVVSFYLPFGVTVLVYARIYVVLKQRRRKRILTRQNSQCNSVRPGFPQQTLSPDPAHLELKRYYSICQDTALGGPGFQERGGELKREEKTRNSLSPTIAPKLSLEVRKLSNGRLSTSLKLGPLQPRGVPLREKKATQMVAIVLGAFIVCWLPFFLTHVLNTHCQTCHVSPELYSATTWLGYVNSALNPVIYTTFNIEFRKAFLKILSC

Compound | potentiation of dopamine response at D3R (D3R) | Kb (human D1R [1]) | increase in dopamine potency (EC50) for β-arrestin recruitment to D1R (human D1R [1]) | Emax (human D1R [1]) | agonist activity of PAM alone, β-arrestin recruitment (human D1R [1]) | effect on potency of D1R partial agonists (human D1R [1]) | D1 Beta-Arrestin: DA + 50 μM PAM, Fold Chg EC50 (human D1R [1]) | log β (modulatory effect on dopamine efficacy) (human D1R [1]) | β (modulatory effect on dopamine efficacy) (human D1R [1]) | increase in SKF77434-stimulated response (human D1R [1]) | increase in efficacy of SKF38393 (human D1R [1]) | increase in efficacy of apomorphine (human D1R [1]) | increase in efficacy of fenoldopam (human D1R [1]) | D4 Beta-Arrestin: DA + 50 μM PAM, Fold Change EC50 (D4R [2]) | potentiation of dopamine response at D2R (D2R) | increase in dopamine potency for cAMP accumulation (human D1R [3]) | agonist activity for cAMP accumulation (human D1R [3]) | D1 cAMP: DA + 50 μM PAM, Fold Chg EC50 (human D1R [3]) | effect on forskolin stimulated cAMP accumulation [4] | potentiation of dopamine response at D4R (D4R [5]) | also measured
CC(C)(C)C1CCc2c(sc(NC(=O)c3cccnc3)c2C(N)=O)C1 (centres unmarked) [Example 2.3, N-(6-(Tert-butyl)-3-carbamoyl-4,5,6,7-tetrahydrobenzo[b]thiophen-2-yl)nicotinamide] | – | – | – | – | – | – | – | – | – | – | – | – | – | – | – | – | – | – | – | – | melting point: 195 to 209 °C
CC(C)(C)C1CCc2c(sc(NC(=O)c3ccncc3)c2C(N)=O)C1 (centres unmarked) [Compound 28] | Neither PAM produced any measurable potentiation | 5.4 µM | 8 fold | 34% | Neither PAM displayed any measurable agonist activity | Neither PAM altered the potency | 8.29 | 0.32±0.1 | 2.09 | 96% | 151% | 134% | 83% | 1.72 | Neither PAM produced any measurable potentiation | 5 fold and 4 fold | Neither compound 1 (FIGS. 3A and 3B) nor compound 28 (FIGS. 3C and 3D) demonstrated any agonist activity | 2.93 | no increase | Neither PAM produced any measurable potentiation | potentiation of epinephrine response at β2AR (β2AR): Neither PAM produced any measurable potentiation; Kb (human D1R [6]): 5.37 µM; log α (human D1R [6]): 0.82±0.11; α (binding cooperativity between PAM and dopamine) (human D1R [6]): 6.61; effect on [3H]-SCH23390 binding (human D1R [6]): complete inhibition; leftward shift of dopamine competition curve (increase in dopamine affinity) (human D1R [6]): ~7 fold; decrease of [3H]-SCH23390 binding (human D1R [6]): ~66%; D5 cAMP: DA + 50 μM PAM, Fold Change EC50 (D5 [7]): 1.63; D5 Beta-Arrestin: DA + 50 μM PAM, Fold Change EC50 (D5 [8]): 1.25; agonist response of PAM alone at D5R (D5 [8]): Neither PAM produced an agonist response
Cn1c2ccccc2c(=O)c2c(=O)n(-c3ccccc3)c(C3CCCCC3)nc21 [Compound 1, 2-Cyclohexyl-10-methyl-3-phenylpyrimido[4,5-b]quinoline-4,5(3H,10H)-dione] | Neither PAM produced any measurable potentiation | 0.46 µM | 7 fold and 5 fold and 4.6 fold | 20% | Neither PAM displayed any measurable agonist activity | Neither PAM altered the potency | 4.64 | 0.41±0.06 | 2.57 | 130% | 111% | 95% | 48% | 1.06 | Neither PAM produced any measurable potentiation | 3 fold | Neither compound 1 (FIGS. 3A and 3B) nor compound 28 (FIGS. 3C and 3D) demonstrated any agonist activity | 1.83 | does not significantly increase | Neither PAM produced any measurable potentiation | Dopamine D1-β-arrestin Assay: DA + 50 μM PAM, Fold Change EC50 (human D1R [1]; Table 5, 50 μM compound): 4.64; Dopamine D4-β-arrestin Assay: DA + 50 μM PAM, Fold Change EC50 (D4R [2]; Table 7, 50 μM compound): 1.06; potentiation of epinephrine response at β2AR (β2AR): Neither PAM produced any measurable potentiation; Kb (human D1R [6]): 0.54 µM; log α (human D1R [6]): 0.49±0.07; α (binding cooperativity between PAM and dopamine) (human D1R [6]): 3.09; effect on [3H]-SCH23390 binding (human D1R [6]): no displacement; leftward shift of dopamine competition curve (increase in dopamine affinity) (human D1R [6]): ~3 fold; decrease of [3H]-SCH23390 binding (human D1R [6]): ~17%; D5 cAMP: DA + 50 μM PAM, Fold Change EC50 (D5 [7]): 2.14; fold change of dopamine EC50 for β-arrestin recruitment to D5R (D5 [8]; 50 μM compound): 2.5 fold; Dopamine D5-β-arrestin Assay: DA + 50 μM PAM, Fold Change EC50 (D5 [8]; Table 6, 50 μM compound): 2.56; D5 Beta-Arrestin: DA + 50 μM PAM, Fold Change EC50 (D5 [8]): 2.56; agonist response of PAM alone at D5R (D5 [8]): Neither PAM produced an agonist response
